# Test results: patent publication US10464896B2, “Efflux-pump inhibitors and therapeutic uses thereof” (Basilea Pharmaceutica International AG, priority 2015, dated 2019)
# System: E. coli ATCC25922
# Experiment: Antibacterial activity in combination with minocycline (growth inhibition)
# Assay type: cell-based
# Details: Escherichia coli, ATCC25922, compound at 25 μM; minocycline 0.25 μg/mL; OD625 23 h minus 1 h; read-out: residual growth of E. coli ATCC25922 (% of uninhibited control) with minocycline
# Procedure, shortened: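 Test compound combined with fixed subinhibitory partner antibiotic: linezolid 128 μg/mL for either strain, minocycline 0.25 μg/mL (E. coli) or 8 μg/mL (P. aeruginosa), in caMHB shaken at 37 °C. Residual growth as % of inhibitor-free control, from OD625 at 23 h minus 1 h.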
row,SMILES,activity at 25 µM
1,C=CCOc1cc(/C=C/c2ccncc2C#N)cc(CNCC2CCNC2)c1 (centres unmarked) [Example 306],≤ 10%
2,C=CCOc1cc(/C=C/c2ccc(C#N)cn2)cc(CNCC2CCNC2)c1 (centres unmarked) [Example 307],≤ 10%
3,N#Cc1ccc(/C=C/c2cccc(CNCC3CNC3)c2)cc1C(F)(F)F [Example 308],≤ 10%
4,C=CCOc1cc(/C=C/c2cc(C#N)cc(C(F)(F)F)c2)cc(CNCC2CNC2)c1 [Example 309],≤ 10%
5,C=CCOc1cc(/C=C/c2ccc(C#N)cc2C(F)(F)F)cc(CNCC2CNC2)c1 [Example 310],≤ 10%
6,C=CCOc1cc(/C=C/c2ccc(C(F)(F)F)cc2C#N)cc(CNCC2CNC2)c1 [Example 311],≤ 10%
7,N#Cc1ccc(/C=C/c2cccc(CNCC3CNC3)c2)c(C(F)(F)F)c1 [Example 312],≤ 10%
8,C=CCOc1cc(/C=C/c2ccc(C#N)cc2C(F)(F)F)cc(CNCC2CCNC2)c1 (centres unmarked) [Example 313],≤ 10%
9,C=CCOc1cc(/C=C/c2ncccc2C#N)cc(CNCC2CCNC2)c1 (centres unmarked) [Example 315],≤ 10%
10,C=CCOc1cc(/C=C/c2cccs2)cc(CNCC2CNC2)c1 [Example 317],≤ 10%
11,C=CCOc1cc(/C=C/c2ccsc2)cc(CNCC2CNC2)c1 [Example 318],≤ 10%
12,C=CCOc1cc(/C=C/c2ccc(C(F)(F)F)c(C#N)c2)cc(CNCC2CNC2)c1 [Example 321],≤ 10%
13,C=CCOc1cc(CCc2ccc(OC)cc2OC)cc(CNCC2CNC2)c1 [Example 322],≤ 10%
14,C=CCOc1cc(/C=C/c2ccnc(C#N)c2)cc(CNCC2CCNC2)c1 (centres unmarked) [Example 324],≤ 10%
15,C=CCOc1cc(/C=C/c2cncc(C#N)c2)cc(CNCC2CCNC2)c1 (centres unmarked) [Example 325],≤ 10%
16,C=CCOc1cc(/C=C/c2ccc(C#N)nc2)cc(CNCC2CCNC2)c1 (centres unmarked) [Example 326],≤ 10%
17,C=CCOc1cc(/C=C/c2csc(C(C)C)n2)cc(CNCC2CNC2)c1 [Example 327],≤ 10%
18,C=CCOc1cc(/C=C/c2c(C#N)cccc2C(F)(F)F)cc(CNCC2CNC2)c1 [Example 328],≤ 10%
19,C=CCOc1cc(/C=C/c2cc(C#N)ccn2)cc(CNCC2CCNC2)c1 (centres unmarked) [Example 329],≤ 10%
20,C=CCOc1cc(/C=C/c2csc(C(C)C)n2)cc(CNCC2CCNC2)c1 (centres unmarked) [Example 330],≤ 10%
21,CC(C)COc1cc(/C=C/c2ccccn2)cc(CNCC2CCNC2)c1 (centres unmarked) [Example 333],≤ 10%
22,CC(C)COc1cc(/C=C/c2ccncc2)cc(CNCC2CCNC2)c1 (centres unmarked) [Example 334],≤ 10%
23,C=CCOc1cc(/C=C/c2cccnc2)cc(CNCC2CNC2)c1 [Example 335],≤ 10%

row,SMILES,activity at 25 µM
1,C=CCOc1cc(/C=C/c2ccccn2)cc(CNCC2CNC2)c1 [Example 336],≤ 10%
2,C=CCOc1cc(/C=C/c2ccncc2)cc(CNCC2CNC2)c1 [Example 338],≤ 10%
3,C=CCOc1cc(/C=C/c2ccc(C(N)=O)cc2)cc(CNCC2CNC2)c1 [Example 339],≤ 10%
4,C=CCOc1cc(/C=C/c2cccc(C(N)=O)c2)cc(CNCC2CNC2)c1 [Example 340],≤ 10%
5,Clc1ccc(/C=C/c2cc(CNCC3CCNC3)cc(OCCc3ccccn3)c2)c(Br)c1 (centres unmarked) [Example 341],≤ 10%
6,NC(=O)COc1cc(/C=C/c2ccc(Cl)cc2Br)cc(CNCC2CCNC2)c1 (centres unmarked) [Example 342],≤ 10%
7,Clc1ccc(/C=C/c2cc(CNCC3CCNC3)cc(OCc3c[nH]cn3)c2)c(Br)c1 (centres unmarked) [Example 344],≤ 10%
8,Cn1cnc(COc2cc(/C=C/c3ccc(Cl)cc3Br)cc(CNCC3CCNC3)c2)c1 (centres unmarked) [Example 345],≤ 10%
9,Clc1ccc(/C=C/c2cc(CNCC3CCNC3)cc(OCc3ccccn3)c2)c(Br)c1 (centres unmarked) [Example 346],≤ 10%
10,Cc1cc(COc2cc(/C=C/c3ccc(Cl)cc3Br)cc(CNCC3CCNC3)c2)no1 (centres unmarked) [Example 347],≤ 10%
11,C=CCOc1cc(/C=C/c2nc(C(F)(F)F)cs2)cc(CNCC2CNC2)c1 [Example 348],≤ 10%
12,"C=CCOc1cc(/C=C/c2ccc(Cl)cc2Br)cc(CNC(=O)C2CCNCC2)c1 [Example 354, N-[[3-allyloxy-5-[(E)-2-(2-bromo-4-chloro-phenyl)vinyl]phenyl]methyl]piperidine-4-carboxamide]",≤ 10%
13,C=CCOc1cc(/C=C/c2nc(C3CC3)cs2)cc(CNCC2CCNC2)c1 (centres unmarked) [Example 355],≤ 10%
14,C=CCOc1cc(/C=C/c2nc(C3CC3)cs2)cc(CNCC2CNC2)c1 [Example 356],≤ 10%
15,C=CCOc1cc(CNCC2CCNC2)cc(CNC(=O)c2ccc(C(C)(C)C)cc2)c1 (centres unmarked) [Example 357],≤ 10%
16,Cc1nc(COc2cc(/C=C/c3ccc(Cl)cc3Br)cc(CNCC3CCNC3)c2)cs1 (centres unmarked) [Example 359],≤ 10%
17,Clc1ccc(/C=C/c2cc(CNCC3CCNC3)cc(OCc3ccncc3)c2)c(Br)c1 (centres unmarked) [Example 360],≤ 10%
18,Nc1nc(COc2cc(/C=C/c3ccc(Cl)cc3Br)cc(CNCC3CCNC3)c2)cs1 (centres unmarked) [Example 361],≤ 10%
19,C=CCOc1cc(/C=C/c2nc(C(C)C)cs2)cc(CNCC2CNC2)c1 [Example 362],≤ 10%
20,C=CCOc1cc(CNCC2CCNC2)cc(CNS(=O)(=O)c2ccc(C(C)(C)C)cc2)c1 (centres unmarked) [Example 364],≤ 10%
21,C=CCOc1cc(/C=C/c2ccc(Cl)cc2Br)cc(CNC(=O)[C@@H]2CCNC2)c1 [Example 367],≤ 10%
22,"C=CCOc1cc(CNCC2CNC2)cc(CNS(=O)(=O)c2ccc(C(C)(C)C)cc2)c1 [Example 369, N-[[3-allyloxy-5-[(azetidin-3-ylmethylamino)methyl]phenyl]methyl]-4-tert-butyl-benzenesulfonamide]",≤ 10%
23,C=CCOc1cc(CNCC2CNC2)cc(C(=O)NCc2ccc(Cl)cc2Br)c1 [Example 370],≤ 10%

row,SMILES,activity at 25 µM
1,C=CCOc1cc(/C=C/c2ccc(Cl)cc2Br)cc(CNC(=O)CNCC2CNC2)c1 [Example 371],≤ 10%
2,C=CCOc1cc(CNCC2CCNC2)cc(C(=O)Nc2ccc(Cl)cc2Br)c1 (centres unmarked) [Example 373],≤ 10%
3,CC(C)COc1cc(/C=C/c2ccccc2C(N)=O)cc(CNCC2CCNC2)c1 (centres unmarked) [Example 375],≤ 10%
4,C=CCOc1cc(CNCC2CNC2)cc(CNC(=O)c2ccc(Cl)cc2Br)c1 [Example 376],≤ 10%
5,CC(C)(C)c1ccc(S(=O)(=O)NCc2cc(CNCC3CCNC3)cc(OCCc3c[nH]cn3)c2)cc1 (centres unmarked) [Example 377],≤ 10%
6,C=CCOc1cc(CNCC2CCNC2)cc(C(=O)NCc2ccc(Cl)cc2Br)c1 (centres unmarked) [Example 380],≤ 10%
7,O=c1[nH]nc(COc2cc(/C=C/c3ccc(Cl)cc3Br)cc(CNCC3CCNC3)c2)o1 (centres unmarked) [Example 381],≤ 10%
8,CC(C)COc1cc(C[N+](C)(C)CC2CNC2)cc(OCc2ccc(Cl)cc2Br)c1 [Example 382],≤ 10%
9,C=CCOc1cc(C[N+](C)(C)CC2CCNC2)cc(OCc2ccc(Cl)cc2Br)c1 (centres unmarked) [Example 388],≤ 10%
10,NC(=O)CCOc1cc(/C=C/c2ccc(Cl)cc2Br)cc(CNCC2CCNC2)c1 (centres unmarked) [Example 390],≤ 10%
11,C=CCOc1cc(CNCC2CNC2)cc(C(=O)Nc2nc(C(C)(C)C)cs2)c1 [Example 392],≤ 10%
12,"C=CCOc1cc(CNCC2CNC2)cc(C(=O)Nc2ccc(Cl)cc2Br)c1 [Example 394, 3-allyloxy-5-[(azetidin-3-ylmethylamino)methyl]-N-(2-bromo-4-chloro-phenyl)benzamide]",≤ 10%
13,C=CCOc1cc(C[N+](C)(C)CC2CNC2)cc(OCc2ccc(Cl)cc2Br)c1 [Example 395],≤ 10%
14,C=CCOc1cc(/C=C/c2ccc(Cl)cc2Br)cc(C[N+](C)(C)CC2CCNC2)c1 (centres unmarked) [Example 396],≤ 10%
15,CC(C)COc1ccc(/C=C/c2ccc(Br)cc2Cl)cc1CNCC1CCNC1 (centres unmarked) [Example 397],≤ 10%
16,C[N+](C)(Cc1cc(/C=C/c2ccc(Cl)cc2Br)cc(OCCc2c[nH]cn2)c1)CC1CCNC1 (centres unmarked) [Example 398],≤ 10%
17,"CC(C)(C)c1ccc(S(=O)(=O)Nc2ccc(CNCC3CCNC3)cc2OCCc2c[nH]cn2)cc1 (centres unmarked) [Example 399, 4-tert-butyl-N-[2-[2-(1H-imidazol-4-yl)ethoxy]-4-[(pyrrolidin-3-ylmethylamino)methyl]phenyl]benzenesulfonamide]",≤ 10%
18,CC(C)COc1ccc(/C=C/c2ccc(Br)cc2Cl)cc1CNCC1CNC1 [Example 401],≤ 10%
19,C=CCOc1cc(/C=C/c2ccc(Cl)cc2Br)cc(C[N+](C)(C)CC2CNC2)c1 [Example 402],≤ 10%
20,C=CCOc1ccc(OCc2ccc(Br)cc2Cl)cc1CNCC1CCNC1 (centres unmarked) [Example 405],≤ 10%
21,C=CCOc1ccc(OCc2ccc(Br)cc2Cl)cc1CNCC1CNC1 [Example 406],≤ 10%
22,C=CCOc1ccc(/C=C/c2ccc(Br)cc2Cl)cc1CNCC1CCNC1 (centres unmarked) [Example 407],≤ 10%
23,C[N+](C)(Cc1cc(/C=C/c2ccc(Cl)cc2Br)cc(OCCc2c[nH]cn2)c1)CC1CNC1 [Example 408],≤ 10%

# Same assay, conditions: Escherichia coli, ATCC25922, compound at 50 μM; minocycline 0.25 μg/mL; OD625 23 h minus 1 h; read-out: residual growth of E. coli ATCC25922 (% of uninhibited control) with minocycline
row,SMILES,activity at 50 µM
1,Clc1ccc(/C=C/c2cc(CNCC3CCNC3)cc(OCc3ccccn3)c2)c(Br)c1 (centres unmarked) [Example 346],≤ 50%
2,O=C(NCc1cc(CNCC2CCNC2)cc(OCCc2c[nH]cn2)c1)c1nc(C2CC2)cs1 (centres unmarked) [Example 391],≤ 50%
3,O=C(NCc1cc(CNCC2CCNC2)cc(OCCc2c[nH]cn2)c1)c1ccc(Cl)cc1Br (centres unmarked) [Example 393],≤ 50%
4,C=CCOc1cc(CNCC2CNC2)cc(OCCc2ccccn2)c1 [Example 409],≤ 50%
5,C=CCOc1cc(CNCC2CCNC2)cc(OCCc2ccccn2)c1 (centres unmarked) [Example 410],≤ 50%
